Values quoted from earlier work in patent publication US9229014B2, “Methods of assessing the need for and the effectiveness of therapy with antioxidants” (priority 2004, dated 2016).

Tests used:
[1] = lipid-soluble antioxidant
heart and liver tissues = conditions: ADR-induced rats; for serum and tissue levels of LDH, aminotransferases and ALP: comparison with control group

CC1=C(/C=C/C(C)=C/C=C/C(C)=C/C=C/C=C(C)/C=C/C=C(C)/C=C/C2=C(C)C[C@@H](O)CC2(C)C)C(C)(C)C[C@H](O)C1 [Zeaxanthin]
antioxidant activity relative to vitamin E [1]: 2.8 times higher than vitamin E

N.N.O=C([O-])C1(C(=O)[O-])CCC1.[Pt+2] [Carboplatin]
reduced to oxidized glutathione ratio, antioxidant enzyme activities (inferior colliculus; 4 days after treatment): significantly depressed | nitric oxide and lipid peroxidation, xanthine oxidase, and manganese superoxide dismutase activities (inferior colliculus; not in the cerebellum): significantly increased

CC1=C[C@H](O)CC(C)(C)[C@H]1/C=C/C(C)=C/C=C/C(C)=C/C=C/C=C(C)/C=C/C=C(C)/C=C/C1=C(C)C[C@@H](O)CC1(C)C [Lutein]
antioxidant activity relative to vitamin E [1]: 2.3 times higher than vitamin E

CC1=C(/C=C/C(C)=C/C=C/C(C)=C/C=C/C=C(C)/C=C/C=C(C)/C=C/C2=C(C)C[C@@H](O)CC2(C)C)C(C)(C)CCC1 [Beta-Cryptoxanthin]
antioxidant activity relative to vitamin E [1]: 3.1 times higher than vitamin E

low molecular weight heparin [LMWH]
cardiac and hepatic lipid peroxidation induced by ADR (heart and liver tissues): decreased | rise in serum CPK (cardiotoxicity) (heart and liver tissues; LMWH treatment): attenuated | serum and tissue levels of LDH, aminotransferases and ALP (heart and liver tissues): prevented the rise

COc1cccc2c1C(=O)c1c(O)c3c(c(O)c1C2=O)C[C@@](O)(C(=O)CO)C[C@@H]3O[C@H]1C[C@H](N)[C@H](O)[C@H](C)O1 [ADR, adriamycin]
serum and tissue levels of LDH, aminotransferases and ALP (heart and liver tissues): significantly elevated

CC(C)=CCC/C(C)=C/C=C/C(C)=C/C=C/C(C)=C/C=C/C=C(C)/C=C/C=C(C)/C=C/C=C(\C)CCC=C(C)C [Lycopene]
antioxidant activity relative to vitamin E [1]: 2.8 times higher than vitamin E
